Experimental data published in patent US10647690B2, “2,3-epoxy succinyl derivative, preparation method and use thereof” (Institute of Pharmacology and Toxicology Academy of …, priority 2016, dated 2020).
Where two headings read alike, the source gives them in different places.

Target: T1, Cathepsin K (Homo sapiens, UniProt P43235)
T1 construct: purchased Biovision K150-100
T1 sequence (P43235 115-329): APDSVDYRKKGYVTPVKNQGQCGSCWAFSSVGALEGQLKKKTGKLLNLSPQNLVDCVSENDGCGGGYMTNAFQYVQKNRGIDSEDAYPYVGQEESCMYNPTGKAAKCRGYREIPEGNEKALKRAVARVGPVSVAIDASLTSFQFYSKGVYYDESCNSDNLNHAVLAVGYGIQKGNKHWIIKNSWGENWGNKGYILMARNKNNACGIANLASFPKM
Experiment: Preliminary screening of Cathepsin K (Cathepsin K Inhibitor Screening Kit K150-100, Biovision)
Format: biochemical
Conditions: relative inhibition rate vs 10 μM FF-FMK control; for Inhibition % (1 μM) replicate 1 / Inhibition % (1 μM) replicate 2 / inhibition at 1 µM: 1 μM compound; for Inhibition % (10 μM) replicate 1 / Inhibition % (10 μM) replicate 2 / inhibition at 10 µM: 10 μM compound
Description: 1. Method for preliminary screening of Cathepsin K:
Preliminary screening of Cathepsin K was performed by using Cathepsin K Inhibitor Screening Kit (Product No. K150-100) from Biovision Company.
1.1.1 Preparation of Cathepsin K enzyme solution: Cathepsin K enzyme (40 μl) and Cathepsin K reagent (80 μl) were added to Cathepsin K buffer (3.88 ml), and were mixed well, to prepare Cathepsin K enzyme solution with a volume of 4 ml, which was placed on ice for further use.
1.1.2 Preparation of a compound solution: different compounds were separately weighed and dissolved in DMSO (methyl sulfoxide), to prepare solutions at a concentration of 30 mM as stock solutions, and for some insoluble compounds, they were prepared into solutions at a concentration of 10 mM as stock solutions; the 30 mM and 10 mM compound stock solutions were diluted to 1 mM and 100 μM DMSO solutions, respectively; 1 mM and 100 μM compound DMSO solutions (2 μl) were separately added to CTSK buffer (18 μl), to prepare compound solutions at a final concentration of 100 μM and 10 μM, respectively, wherein the concentration of DMSO was 10%.
1.1.3 Preparation of Cathepsin K substrate solution: Cathepsin K substrate (160 μl) was added to Cathepsin K buffer (3.44 ml), and mixed homogeneously, to prepare Cathepsin K substrate solution with a volume of 3.6 ml, which was placed on ice for further use.
1.2 Method for screening Cathepsin K inhibitor: Cathepsin K enzyme solution (prepared in Item 1.1.1) was added to a 384-well plate (ProxiPlate-384 Plus, Perkinelmer) at 10 μl/well, and centrifuged at 1000 rpm for 1 min; the compound solution (prepared in Item 1.1.2) was then added at 2 µl/well, and centrifuged at 1000 rpm for 1 min, and every concentration was repeated in two wells; the plate was placed in a 25° C. incubator for 15 min; Cathepsin K substrate solution was then added at 8 μl/well, and centrifuged at 1000 rpm for 1 min; and finally, the fluorescence signal was read in Enspire, wherein the exciting light was at a wavelength of 400 nm, the emitting light was at a wavelength of 505 nm, and continuous reading was performed at 37° C. for 120 min.
1.3 Data analysis: the slope (S) for all the samples was calculated by ΔRFU (RFU2−RFU1) and time ΔT (T2−T1), including negative control (Enzyme Control, EC) and positive control (Inhibitor Control, IC: 10 μM FF-FMK), and the calculation formula was as followed: Relative inhibition rate %=(SEC−SS)/(SEC−SIC)*100.

[1] = replicate 1, read-out: Inhibition % (1 μM) replicate 1
[2] = replicate 2, read-out: Inhibition % (1 μM) replicate 2
[3] = replicate 1, read-out: Inhibition % (10 μM) replicate 1
[4] = replicate 2, read-out: Inhibition % (10 μM) replicate 2

Row | Structure (SMILES) | inhibition at 1 µM [1] | inhibition at 1 µM [2] | inhibition at 10 µM [3] | inhibition at 10 µM [4] | Inhibition % (1 μM) replicate 1 (replicate 1) | Inhibition % (1 μM) replicate 2 (replicate 2) | Inhibition % (10 μM) replicate 1 (replicate 1) | Inhibition % (10 μM) replicate 2 (replicate 2)
1 | CCOC(=O)[C@H]1O[C@@H]1C(=O)N[C@@H](CCSC)C(=O)NCCC(C)C [Compound 1, (2s, 3s)-2-ethoxycarbonyl-3-[2-[(s)-4-methylthio-1-carbonyl-1-(isopentylamino)butane]formylamino]epoxysuccinic acid] | – | – | – | – | 17.79% | 20.59% | 41.60% | 47.08%
2 | CCCCCNC(=O)[C@H](CCSC)NC(=O)[C@H]1O[C@@H]1C(=O)OCC [Compound 2, (2s, 3s)-2-ethoxycarbonyl-3-[2-[(s)-4-methylthio-1-carbonyl-1-(pentylamino)butane]formylamino]epoxysuccinic acid] | 28.6% | 33.2% | 59.5% | 60% | – | – | – | –
3 | CCOC(=O)[C@H]1O[C@@H]1C(=O)N[C@@H](CCSC)C(=O)NCC(C)CC (stereo partly drawn) [Compound 3, (2s, 3s)-2-ethoxycarbonyl-3-[2-[(s)-4-methylthio-1-carbonyl-1-(2-methylbutylamino)butane]formylamino]epoxysuccinic acid] | 31% | 16.6% | 42% | 36.7% | – | – | – | –
4 | CCCNC(=O)[C@H](CCSC)NC(=O)[C@H]1O[C@@H]1C(=O)OCC [Compound 4, (2s, 3s)-2-ethoxycarbonyl-3-[2-[(s)-4-methylthio-1-carbonyl-1-(propylamino)butane]formylamino]epoxysuccinic acid] | 15.6% | 23.6% | 31.6% | 34.9% | – | – | – | –
5 | CCCC(C)NC(=O)[C@H](CCSC)NC(=O)[C@H]1O[C@@H]1C(=O)OCC (stereo partly drawn) [Compound 6, (2s, 3s)-2-ethoxycarbonyl-3-[2-[(s)-4-methylthio-1-carbonyl-1-(1-methylbutylamino)butane]formylamino]epoxysuccinic acid] | 31.6% | 36.6% | 33% | 39.1% | – | – | – | –
6 | CCOC(=O)[C@H]1O[C@@H]1C(=O)N[C@@H](CCSC)C(=O)N1CCCC(C)C1 (stereo partly drawn) [Compound 7, (2s, 3s)-2-ethoxycarbonyl-3-[2-[(s)-4-methylthio-1-carbonyl-1-(3-methylpiperidinyl)butane]formylamino]epoxysuccinic acid] | 33% | -19.6% | 37.4% | 28.4% | – | – | – | –
7 | CCOC(=O)[C@H]1O[C@@H]1C(=O)N[C@@H](CCSC)C(=O)NCC(C)C [Compound 9, (2s, 3s)-2-ethoxycarbonyl-3-[2-[(s)-4-methylthio-1-carbonyl-1-(isobutylamino)butane]formylamino]epoxysuccinic acid] | 25.6% | 18.1% | 29.2% | 28.8% | – | – | – | –
8 | CCOC(=O)[C@H]1O[C@@H]1C(=O)N[C@@H](CCSC)C(=O)NCCc1ccc(OC)cc1 [Compound 10, (2s, 3s)-2-ethoxycarbonyl-3-[2-[(s)-4-methylthio-1-carbonyl-1-(4-methoxyphenylethylamino)butane]formylamino]epoxysuccinic acid] | 33.1% | 35.8% | 80.2% | 66.5% | – | – | – | –
9 | CCOC(=O)[C@H]1O[C@@H]1C(=O)N[C@@H](CCSC)C(=O)N1CCCC1 [Compound 11, (2s, 3s)-2-ethoxycarbonyl-3-[2-[(s)-4-methylthio-1-carbonyl-1-(tetrahydropyrrolyl)butane]formylamino]epoxysuccinic acid] | 15.3% | -7.42% | 32% | 15.2% | – | – | – | –
10 | CCOC(=O)[C@H]1O[C@@H]1C(=O)N[C@@H](CCSC)C(=O)N1CCOCC1 [Compound 12, (2s, 3s)-2-ethoxycarbonyl-3-[2-[(s)-4-methylthio-1-carbonyl-1-(morpholinyl)butane]formylamino]epoxysuccinic id] | 15.4% | 26.6% | 44% | 51.7% | – | – | – | –
11 | CCOC(=O)[C@H]1O[C@@H]1C(=O)N[C@H](CSCc1ccccc1)C(=O)NCC(C)CC (stereo partly drawn) [Compound 14, (2s, 3s)-2-ethoxycarbonyl-3-[2-[(s)-3-benzylthio-1-carbonyl-1-(2-methylbutylamino)propane]formylamino]epoxysuccinic acid] | – | – | – | – | 31.16% | −7.18% | 42.39% | 41.33%
12 | CCOC(=O)[C@H]1O[C@@H]1C(=O)N[C@@H](CSCc1ccccc1)C(=O)NCC(C)(C)C [Compound 15, (2s, 3s)-2-ethoxycarbonyl-3-[2-[(s)-3-benzylthio-1-carbonyl-1-(neopentylamino)propane]formylamino]epoxysuccinic acid] | 28.1% | 35.6% | 50.1% | 48.6% | – | – | – | –

More lines, main results first:

Row | inhibition at 1 µM [1] | inhibition at 1 µM [2] | inhibition at 10 µM [3] | inhibition at 10 µM [4] | Structure (SMILES) | Inhibition % (1 μM) replicate 1 (replicate 1) | Inhibition % (1 μM) replicate 2 (replicate 2) | Inhibition % (10 μM) replicate 1 (replicate 1) | Inhibition % (10 μM) replicate 2 (replicate 2)
13 | 38.9% | 39.2% | 60.8% | 63.6% | CCOC(=O)[C@H]1O[C@@H]1C(=O)N[C@@H](CSCc1ccccc1)C(=O)NC(C)(C)CC [Compound 16, (2s, 3s)-2-ethoxycarbonyl-3-[2-[(s)-3-benzylthio-1-carbonyl-1-(tert-pentylamino)propane]formylamino]epoxysuccinic acid] | – | – | – | –
14 | 26.9% | 32.2% | 34.8% | 31.7% | CCCNC(=O)[C@H](CSCc1ccccc1)NC(=O)[C@H]1O[C@@H]1C(=O)OCC [Compound 17, (2s, 3s)-2-ethoxycarbonyl-3-[2-[(s)-3-benzylthio-1-carbonyl-1-(propylamino)propane]formylamino]epoxysuccinic acid] | – | – | – | –
15 | 23.5% | 32.7% | 56.1% | 48.2% | CCCCCCNC(=O)[C@H](CSCc1ccccc1)NC(=O)[C@H]1O[C@@H]1C(=O)OCC [Compound 18, (2s, 3s)-2-ethoxycarbonyl-3-[2-[(s)-3-benzylthio-1-carbonyl-1-(hexylamino)propane]formylamino]epoxysuccinic acid] | – | – | – | –
16 | 32% | 20.4% | 33.5% | 27.9% | CCOC(=O)[C@H]1O[C@@H]1C(=O)N[C@@H](CSCc1ccccc1)C(=O)NC(C)CC (stereo partly drawn) [Compound 19, (2s, 3s)-2-ethoxycarbonyl-3-[2-[(s)-3-benzylthio-1-carbonyl-1-(1-methylpropylamino)propane]formylamino]epoxysuccinic acid] | – | – | – | –
17 | 30.2% | 37% | 36.3% | 50.4% | CCOC(=O)[C@H]1O[C@@H]1C(=O)N[C@@H](CSCc1ccccc1)C(=O)NCCCCc1ccccc1 [Compound 20, (2s, 3s)-2-ethoxycarbonyl-3-[2-[(s)-3-benzylthio-1-carbonyl-1-(4-phenylbutylamino)propane]formylamino]epoxysuccinic acid] | – | – | – | –
18 | 33.1% | 29.9% | 67.2% | 53% | CCOC(=O)[C@H]1O[C@@H]1C(=O)N[C@@H](CSCc1ccccc1)C(=O)NCCc1ccc(C)cc1 [Compound 21, (2s, 3s)-2-ethoxycarbonyl-3-[2-[(s)-3-benzylthio-1-carbonyl-1-(p-methylphenylethylamino)propane]formylamino]epoxysuccinic acid] | – | – | – | –
